The target of the assay is T1, single chain tethered (tandem) HIV protease (HIV-1 M:B_HXB2R, UniProt P04585).
T1 construct: purified enzyme, FITC/biotin substrate assay
As to the kind of experiment: Tandem HIV protease assay. The format is biochemical. Particulars: read-out: FITC KI; Table II; enzyme HIV1TANDEM. The protocol:
In the enzyme inhibition assay described above, the sensitivity of Ki value determination is in part limited by the ability to continue to lower the enzyme concentration for compounds with high binding affinity. To prevent de-dimerization at low enzyme concentration, a tandemly linked enzyme is prepared in which the two monomers are covalently linked by an appropriate stretch of amino acid residues. Using the latter enzyme, the sensitivity of the inhibition assay is improved since much lower enzyme concentration can be utilized, as compared to the condition using the wild-type enzyme.
The starting inhibitor concentrations are determined based on preliminary enzyme inhibition screening results which estimate the expected potency of the inhibitor. Inhibitor concentrations are then prepared using the Biomek 1000 (Beckman) and the Quadra 96 (Tomtec). Substrate (biotinylated at the amino terminal arginine and fluorescently labeled with fluorescein at the carboxyl terminal lysine), inhibitor and the tandem enzyme are allowed to react in solution at pH 5.5 (buffers identical to those used with the native dimeric enzyme) in the dark for 96 hours. Streptavidin coated polystyrene beads are added to stop the reaction. The labeled cleavage product is separated from unreacted substrate via filtration. Residual fluorescence is quantitated with the Idexx SM2000 (Idexx) and the resulting data are analyzed using the NLLSF program.

By Ki is commonly meant a dissociation constant, usually derived from enzyme kinetics or from competition with a known ligand.

With `CC(C)(C)C(C1=C(O)CC(CCc2ccccc2)(CCC(F)(F)F)OC1=O)c1cccc(NS(=O)(=O)c2ccc(C#N)cn2)c1` (single isomer, unassigned) [Example 266, 5-cyano-N-[3-(R or S)-[1-[5,6-dihydro-4-hydroxy-2-oxo-6-(2-phenethyl)-6-(R or S)-(3,3,3-trifluoropropyl)-2H-pyran-3-yl]-2,2-dimethylpropyl]phenyl]-2-pyridinesulfonamide], the inhibitory constant (Ki) was determined as 0.033 nM.

For the molecule `CC(C)(C)C(C1=C(O)CC(CCc2ccccc2)(CCC(F)(F)F)OC1=O)c1cccc(NS(=O)(=O)c2ccc(N)cn2)c1` (single isomer, unassigned) [Example 268, 5-amino-N-[3-(R or S)-[1-[5,6-dihydro-4-hydroxy-2-oxo-6-(2-phenethyl)-6-(R or S)-(3,3,3-trifluoropropyl)-2H-pyran-3-yl]-2,2-dimethylpropyl]phenyl]-2-pyridinesulfonamide], the Ki amounted to 0.835 nM.

With `CC(C)(C)C(C1=C(O)CC(CCc2ccccc2)(CCC(F)(F)F)OC1=O)c1cccc(NS(=O)(=O)c2ccc(N)cn2)c1` (single isomer, unassigned) [Example 271, 5-amino-N-[3-(R or S)-[1-[5,6-dihydro-4-hydroxy-2-oxo-6-(2-phenethyl)-6-(R or S)-(3,3,3-trifluoropropyl)-2H-pyran-3-yl]-2,2-dimethylpropyl]phenyl]-2-pyridinesulfonamide], the inhibitory constant (Ki) is 0.051 nM.

On to `CC(C)(C)C(C1=C(O)CC(CCc2ccccc2)(CCC(F)(F)F)OC1=O)c1cccc(NS(=O)(=O)c2ccc(C#N)cn2)c1` (single isomer, unassigned) [Example 272, 5-cyano-N-[3-(R or S)-[1-[5,6-dihydro-4-hydroxy-2-oxo-6-(2-phenethyl)-6-(R or S)-(3,3,3-trifluoropropyl)-2H-pyran-3-yl]-2,2-dimethylpropyl]phenyl]-2-pyridinesulfonamide], for which the inhibitory constant (Ki) was 3.6 nM.

Turning to `CCC(C1=C(O)CC(CCc2ccccc2)(CCc2ccccc2)OC1=O)c1cccc(NS(=O)(=O)c2ccc(C(F)(F)F)cn2)c1` (single isomer, unassigned) [Example 287, 5-Trifluoromethyl-N-[3-(R or S)-[1-[4-hydroxy-2-oxo-6,6-di-phenethyl-5,6-dihydro-2H-pyran-3-yl]-propyl]-phenyl]-2-pyridinesulfonamide], the Ki was 0.038 nM.

On to `CCC(C1=C(O)CC(CCc2ccccc2)(CCc2ccccc2)OC1=O)c1cccc(NS(=O)(=O)c2cc(C(F)(F)F)ccn2)c1` (single isomer, unassigned) [Example 289, 4-Trifluoromethyl-N-[3-(R or S)-[1-[4-hydroxy-2-oxo-6,6-di-phenethyl-5,6-dihydro-2H-pyran-3-yl]-propyl]-phenyl]-2-pyridinesulfonamide], for which the Ki was 0.133 nM.

`CCC(C1=C(O)CC(CCc2ccccc2)(CCc2ccccc2)OC1=O)c1cccc(NS(=O)(=O)c2cc(C(F)(F)F)ccn2)c1` (single isomer, unassigned) [Example 290, 4-Trifluoromethyl-N-[3-(R or S)-[1-[4-hydroxy-2-oxo-6,6-di-phenethyl-5,6-dihydro-2H-pyran-3-yl]-propyl]-phenyl]-2-pyridinesulfonamide]: the Ki worked out at 1.88 nM.

Consider `CCCC1(CCc2ccccc2)CC(O)=C(C(c2cccc(NS(=O)(=O)c3ccc(C(F)(F)F)cn3)c2)C(C)(C)C)C(=O)O1` (single isomer, unassigned) [Example 295, 5-Trifluoromethyl-N-[3 (R or S)-[1-[5,6-dihydro-4-hydroxy-2-oxo-6(R or S)-(2-phenethyl)-6(R or S)-n-propyl-2H-pyran-3-yl]-2,2-dimethylpropyl]-phenyl]-2-pyridinesulfonamide], for which the Ki worked out at 0.071 nM.
